Reference: US7205403B2, “8-Heteroaryl xanthine adenosine A2B receptor antagonists” (King Pharmaceuticals Research and Development, Inc., priority 2002, dated 2007)

Assays:
[1] = target: T1, human A2A adenosine receptor (Homo sapiens, UniProt P29274); test: [3H]ZM241385 binding to human A2A receptors expressed in CHO cells; conditions: read-out: Ki, [3H]ZM241385 binding to human A2A receptors expressed in CHO cells
T1 construct: expressed in transfected cells; host or cells: CHO cells (membranes)
Description: (§1) The cells were grown adherently and maintained in Dulbecco's modified Eagle's medium with nutrient mixture F12 without nucleosides at 37° C. in 5% CO2/95% air. The cells were washed with phosphate-buffered saline and scraped off flasks in ice cold hypotonic buffer ([…] Tris HCl, 2 mM EDTA, pH 7.4). The cell suspension was homogenized with a Polytron and the homogenate was centrifuged for 30 minutes at 48,000 g. The resultant membrane pellet was re-suspended in 50 mM Tris HCl buffer at pH 7.4 for A1 adenosine receptors; in 50 mM Tris HCl 10 mM MgCl, at pH 7.4 for A2A adenosine receptors; in 50 mM Tris HCl, 10 mM MgCl2, 1 mM EDTA, at pH 7.4 for A3 adenosine receptors and were utilized for binding assays.
(§2) The filter bound radioactivity was counted on Top Count (efficiency 57%) with Micro-Scint 20.
(§3) The filter bound radioactivity was counted on a Top Count brand Microplate Scintillation Counter (efficiency 57%) with Micro-Scint 20. […] Inhibitory binding constant. […] Results and Discussion

[2] = target: T2, human A2B adenosine receptor (Homo sapiens, UniProt P29275); test: [3H]DPCPX binding to human A2B receptors expressed in HEK293 cells; set-up: host or cells: HEK 293 cells (membranes); conditions: geometric mean (95% confidence interval); >1000 = no appreciable binding; read-out: Ki, [3H]DPCPX binding to human A2B receptors expressed in HEK293 cells
T2 sequence (P29275 1-332): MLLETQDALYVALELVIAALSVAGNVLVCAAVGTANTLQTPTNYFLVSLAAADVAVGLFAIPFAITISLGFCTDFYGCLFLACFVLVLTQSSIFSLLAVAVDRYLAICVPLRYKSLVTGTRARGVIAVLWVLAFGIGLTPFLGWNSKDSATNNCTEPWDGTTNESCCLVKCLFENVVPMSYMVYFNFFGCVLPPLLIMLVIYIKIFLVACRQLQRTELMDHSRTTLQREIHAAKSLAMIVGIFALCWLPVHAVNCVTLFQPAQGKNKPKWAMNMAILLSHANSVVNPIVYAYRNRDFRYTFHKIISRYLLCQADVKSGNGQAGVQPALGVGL
Description: HEK 293 cells transfected with the human recombinant A2B adenosine receptor were obtained from Receptor Biology, Inc. (Beltsville, Md. USA).
Binding of 1 [^3H]-DPCPX to HEK 293 cells transfected with the human recombinant A2B adenosine receptors was performed according to the method described by Varani et al., 2000. In particular, assays were carried out for 60 minutes at 25° C. in 100 μl of […] Tris HCl buffer, […] MgCl2, 1 mM EDTA, 0.1 mM benzamidine pH 7.4, 2 IU/ml adenosine deaminase containing 40 nM [^3H]-DPCPX, diluted membranes (20 μg of protein/assay) and at least 6–8 different concentration of tested compounds.
as §2, §3

[3] = target: T3, human A3 adenosine receptor (Homo sapiens, UniProt P0DMS8); test: [3H]MRE3008F20 binding to human A3 receptors expressed in CHO cells
T3 construct: expressed in transfected cells; host or cells: CHO cells (membranes)
T3 sequence (P0DMS8 1-318): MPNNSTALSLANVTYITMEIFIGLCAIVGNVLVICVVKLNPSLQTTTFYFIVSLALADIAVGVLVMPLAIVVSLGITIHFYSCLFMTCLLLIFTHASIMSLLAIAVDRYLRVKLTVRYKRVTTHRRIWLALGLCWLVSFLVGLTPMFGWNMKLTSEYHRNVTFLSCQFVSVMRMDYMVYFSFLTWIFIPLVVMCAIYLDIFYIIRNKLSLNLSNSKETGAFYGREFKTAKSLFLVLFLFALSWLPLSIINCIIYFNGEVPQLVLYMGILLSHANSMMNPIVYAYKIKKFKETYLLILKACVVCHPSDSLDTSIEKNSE
Description: as §1
Binding of [^3H]-MRE3008-F20 to CHO cells transfected with the human recombinant A3 adenosine receptors was performed according to Varani et al., 2000. Competition experiments were carried out in duplicate in a final volume of 250 μl in test tubes containing 1 nM [^3H]-MRE3008-F20, 50 mM Tris HCl buffer, […] MgCl2, pH 7.4 and 100 μl of diluted membranes (50 μg of protein/assay) and at least 6–8 different concentrations of examined ligands for 120 minutes at 4° C.
as §2, §3

T1 sequence (P29274 whole entry): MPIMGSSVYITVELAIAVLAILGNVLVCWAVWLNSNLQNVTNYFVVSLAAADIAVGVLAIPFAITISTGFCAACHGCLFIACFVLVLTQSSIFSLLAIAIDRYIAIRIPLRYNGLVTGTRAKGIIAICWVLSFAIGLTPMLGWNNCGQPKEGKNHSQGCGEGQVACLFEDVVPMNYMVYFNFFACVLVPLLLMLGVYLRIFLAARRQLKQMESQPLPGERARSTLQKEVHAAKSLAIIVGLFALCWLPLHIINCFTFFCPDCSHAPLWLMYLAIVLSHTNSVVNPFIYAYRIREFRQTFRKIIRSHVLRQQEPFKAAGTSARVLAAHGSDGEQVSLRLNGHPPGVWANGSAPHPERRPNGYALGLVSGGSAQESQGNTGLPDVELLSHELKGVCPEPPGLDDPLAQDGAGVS

Row | SMILES | Ki [1] | Ki [2] | Ki [3]
1 | CCCn1c(=O)c2[nH]c(-c3cc(OCC(=O)N4CCN(c5ccc(F)cc5)CC4)nn3C)nc2n(CCC)c1=O [AS72, 8-(5-{2-[4-(4-Fluoro-phenyl)-piperazin-1-yl]-2-oxo-ethoxy}-2-methyl-2H-pyrazol-3-yl)-1,3-dipropyl-3,7-dihydro-purine-2,6-dione] | > 1000 nM | 55 nM | > 1000 nM
2 | CCCn1c(=O)c2[nH]c(-c3cc(OCC(=O)Nc4ccc(N5CCOCC5)cc4)nn3C)nc2n(CCC)c1=O [AS93, 1,3-di-n-propyl-8-{5-[(4-(morpholine-4-yl)-phenylcarbamoyl)-methoxy]-2-methyl-2H-pyrazole-3-yl}-xanthine] | > 1000 nM | 86 nM | > 1000 nM
3 | CCCn1c(=O)c2[nH]c(-c3cc(NC(=O)[C@@H](C)c4ccccc4)nn3C)nc2n(CCC)c1=O [AS18, (2S)-N-[5-(2,6-dioxo-1,3-dipropyl-2,3,6,7-tetrahydro-1H-purin-8-yl)-1-methyl-1H-pyrazol-3-yl]-2-phenylpropanamide] | > 1000 nM | > 1000 nM | > 1000 nM
4 | CCCn1c(=O)c2[nH]c(-c3cc(OCC(=O)Nc4ccc(C(=O)OCC)cc4)nn3C)nc2n(CCC)c1=O [AS94, 1,3-di-n-propyl-8-{5-[(4-(ethoxycarbonyl)-phenylcarbamoyl)-methoxy]-2-methyl-2H-pyrazole-3-yl}-xanthine] | > 1000 nM | 32 nM | > 1000 nM
5 | CCCn1c(=O)c2[nH]c(-c3cc(OCC(=O)Nc4ccc(F)cc4)no3)nc2n(CCC)c1=O [AS73, 1,3-di-n-propyl-8-{3-[(4-fluoro-phenylcarbamoyl)-methoxy]-isoxazol-5-yl}-xanthine] | > 1000 nM | 70 nM | > 1000 nM
6 | CCCn1c(=O)c2[nH]c(-c3cc(OCC(=O)Nc4ccc(OC)cc4)no3)nc2n(CCC)c1=O [AS75, 1,3-di-n-propyl-8-{3-[(4-methoxy-phenylcarbamoyl)-methoxy]-isoxazol-5-yl}-xanthine] | > 1000 nM | 53 nM | > 1000 nM
7 | CCCn1c(=O)c2[nH]c(-c3cc(NC(=O)Cc4ccc(CC(C)C)cc4)nn3C)nc2n(CCC)c1=O [AS14, N-[5-(2,6-dioxo-1,3-dipropyl-2,3,6,9-tetrahydro-1H-purin-8-yl)-1-methyl-1H-pyrazol-3-yl]-2-(4-isobutylphenyl)acetamide] | > 1000 nM | > 1000 nM | > 1000 nM
8 | CCCn1c(=O)c2[nH]c(-c3cc(NC(=O)CCC(=O)O)nn3C)nc2n(CCC)c1=O [AS8, 4-{[5-(1,3-dipropyl-2,6-dioxo-2,3,6,7-tetrahydro-1H-purin-8-yl)-1-methyl-1H-pyrazol-3-yl]amino}-4-oxobutanoic acid] | > 1000 nM | > 1000 nM | > 1000 nM
9 | CCCn1c(=O)c2[nH]c(-c3cc(C(=O)O)n(C)n3)nc2n(CCC)c1=O [AS1, 1,3-di-n-propyl-8-(1-methyl-5-carboxy-1-H-pyrazol-3-yl)-xanthine] | > 1000 nM | > 1000 nM | > 1000 nM
10 | C=CCn1c(=O)c2[nH]c(-c3cc(OCC(=O)N4CCN(c5ccccc5)CC4)nn3C)nc2n(CC=C)c1=O [AS96, 1,3-di-allyl-8-{5-[2-oxo-2-(4-phenyl-piperazin-1-yl)-ethoxy]-2-methyl-2H-pyrazole-3-yl}-xanthine] | > 1000 nM | 24 nM | > 1000 nM
11 | CCCn1c(=O)c2[nH]c(-c3cc(OCC(=O)N4CCN(C)CC4)nn3C)nc2n(CCC)c1=O [AS87, 1,3-di-n-propyl-8-{5-[2-Oxo-2-(4-methyl-piperazin-1-yl)-ethoxy]-2-methyl-2H-pyrazole-3-yl}-xanthine] | > 1000 nM | 122 nM | > 1000 nM
12 | CCCn1c(=O)c2[nH]c(-c3ccc(OCC(=O)Nc4ccc(I)cc4)nn3)nc2n(CCC)c1=O [AS85, 1,3-di-n-propyl-8-{6-[(4-iodo-phenylcarbamoyl)-methoxy]-pyridazin-3-yl}-xanthine] | > 1000 nM | > 1000 nM | > 1000 nM
13 | CCCn1c(=O)c2[nH]c(-c3cc(NC(=O)Cc4ccc(O)c(OC)c4)nn3C)nc2n(CCC)c1=O [AS58, N-[5-(2,6-dioxo-1,3-dipropyl-2,3,6,9-tetrahydro-1H-purin-8-yl)-1-methyl-1H-pyrazol-3-yl]-2-(4-hydroxy-3-methoxyphenyl)acetamide] | 1760 nM | 342 nM | > 1000 nM
14 | CCCn1c(=O)c2[nH]c(-c3cc(NC(=O)Cc4ccc(N(C)C)cc4)nn3C)nc2n(CCC)c1=O [AS26, N-[5-(2,6-dioxo-1,3-dipropyl-2,3,6,9-tetrahydro-1H-purin-8-yl)-1-methyl-1H-pyrazol-3-yl]-2-[4-(N,N-dimethylamino)phenyl]acetamide] | > 1000 nM | 1630 nM | > 1000 nM
15 | CCCn1c(=O)c2[nH]c(-c3cc(NC(=O)[C@H](C)c4ccccc4)nn3C)nc2n(CCC)c1=O [AS19, (2R)-N-[5-(2,6-dioxo-1,3-dipropyl-2,3,6,7-tetrahydro-1H-purin-8-yl)-1-methyl-1H-pyrazol-3-yl]-2-phenylpropanamide] | > 1000 nM | > 1000 nM | > 1000 nM
16 | CCCn1c(=O)c2[nH]c(-c3cc(OCC(=O)Nc4ccc(C(=O)O)cc4)nn3C)nc2n(CCC)c1=O [AS95, 1,3-di-n-propyl-8-{5-[(4-carboxy-phenylcarbamoyl)-methoxy]-2-methyl-2H-pyrazole-3-yl}-xanthine] | > 1000 nM | 36 nM | > 1000 nM
17 | CCCn1c(=O)c2[nH]c(-c3cc(OCC(=O)Nc4ccc(OC)c(OC)c4)no3)nc2n(CCC)c1=O [AS76, 1,3-di-n-propyl-8-{3-[(3,4-dimethoxy-phenylcarbamoyl)-methoxy]-isoxazol-5-yl}-xanthine] | > 1000 nM | 51 nM | > 1000 nM
18 | CCCn1c(=O)c2[nH]c(-c3cc(OCC(=O)Nc4ccc(OC)c(OC)c4)nn3C)nc2n(CCC)c1=O [AS101, 1,3-di-n-propyl-8-{5-[(3,4-dimethoxy-phenylcarbamoyl)-methoxy]-2-methyl-2H-pyrazole-3-yl}-xanthine] | > 1000 nM | 12 nM | > 1000 nM
19 | Cn1nc(NC(=O)Cc2ccccc2)cc1-c1nc2c([nH]1)c(=O)n(C)c(=O)n2C [AS40, N-[5-(2,6-dioxo-1,3-dimethyl-2,3,6,9-tetrahydro-1H-purin-8-yl)-1-methyl-1H-pyrazol-3-yl]-2-phenylacetamide] | > 1000 nM | 569 nM | > 1000 nM
20 | CCCn1c(=O)c2[nH]c(-c3ccc(OCC(=O)Nc4ccc(I)cc4)nc3)nc2n(CCC)c1=O [AS81, 1,3-di-n-propyl-8-{6-[(4-iodo-phenylcarbamoyl)-methoxy]-pyridin-3-yl}-xanthine] | > 1000 nM | 108 nM | > 1000 nM
